Data: doi:10.1101/2023.10.02.559746v1 (biorxiv, 2023)

Molecular target: T1, RALY (Homo sapiens, UniProt Q9UKM9)
T1 sequence (Q9UKM9 2-306): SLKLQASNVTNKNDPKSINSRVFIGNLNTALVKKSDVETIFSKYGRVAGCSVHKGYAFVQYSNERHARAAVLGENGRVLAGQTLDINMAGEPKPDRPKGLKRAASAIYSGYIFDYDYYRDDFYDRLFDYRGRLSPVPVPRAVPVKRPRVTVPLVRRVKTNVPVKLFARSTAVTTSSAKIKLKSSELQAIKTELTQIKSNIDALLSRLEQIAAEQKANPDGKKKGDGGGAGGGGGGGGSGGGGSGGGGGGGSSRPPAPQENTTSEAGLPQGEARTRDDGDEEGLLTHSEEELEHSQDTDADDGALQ
Test: surface plasmon resonance imaging
Format: binding

Kd: 15.5 µM
SMILES: CC(C)[C@H](CN)NC[C@H](C)NS(=O)(=O)c1ccc(C(C)(C)C)cc1 [2470-51, N-((S)-1-(((R)-1-amino-3-methylbutan-2-yl)amino)propan-2-yl)-4-(tert-butyl)benzenesulfonamide]
